System: human Treg cells
Assay: Inhibitory activity of human Treg cells in in vitro assays of T cell stimulation (anti-CD3 or MLR, tritiated thymidine proliferation)
Format: cell-based
Conditions: all treatment groups (0.01 ug/ml, 0.1 ug/ml and 1 ug/ml), 72 hours culture; compared to controls that received scrambled peptide (FFSAFLSEC)
Procedure: Isolation of human CD4+, CD4+CD25+, and CD4+CD25− T cells was performed from PBMC by using human Treg isolation kits (Miltenyi Biotec), respectively, according to the manufacturer's instructions. The purity of the resulting T cell populations was confirmed to be >95% by flow cytometry.
Inhibitory activity of human Treg cells was measured in in vitro assays of T cell stimulation. CD25-depleted spleen cells (10^5 cells/well) from human PBMC (105) were stimulated in vitro with the following: anti-human CD3 Ab (BD Pharmingen) or human PBMC (105) from a different donor (to induce a MLR). Cultures were maintained for 72 hours in the presence of SAFFLFCSE peptide at concentrations of 0.01 ug/ml, 0.1 ug/ml and 1 ug/ml. Tritiated thymidine was added at a concentration of 1 microcurie per well for the last 12 hours of culture. Scintillation counting was used to assess proliferation.

SAFFLFCSE
inhibition of T regulatory cell suppressive activity: > 80%

Reference: patent publication US20160022761A1, “DEREPRESSION OF IMMUNITY IN ONCOLOGICAL AND VIROLOGICAL CONDITIONS BY HIGH MOBILITY GROUP BOX 1 DERIVED PEPTIDES” (priority 2014, published 2016)
